From patent publication US8759264B2, “Water-based hydraulic fluids comprising dithio-di(aryl carbolic acids)” (Clarient Finance (BVI) Limited, priority 2008, dated 2014)
Like-named read-outs stand apart in the source and are kept apart here.

Key:
[1] = Biodegradability (OECD 306)
Algal = Algal toxicity; details: in vivo
Fish = Fish toxicity; details: in vivo

| Compound | Biodegradability (OECD 306) ([1]; OECD 306) [%] | Algal toxicity (EC50) (Algal) [µg/mL] | Fish toxicity (LC50) (Fish) [µg/mL] | Biodegradability (OECD 306) [1] [%] |
| --- | --- | --- | --- | --- |
| O=C(O)c1ccccc1SSc1ccccc1C(=O)O [Dithiodi(benzoic acid), o-dithiodibenzoic acid] | >30 | >100 | >100 |  |
| N-Aminoethyloleyl-imidazoline |  | <1 | <10 | >60 |
| S=c1[nH]c2ccccc2s1 [Mercaptobenzothiazole] | <20 | <1 | <10 |  |
